In PubChem BioAssay (NCI):
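A five-concentration, 48-hour dose response in 96-well plates underlies each endpoint, interpolated linearly between surrounding concentrations. GI50 = concentration required for 50% inhibition of growth. The concentration for full growth arrest is given as TGI.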

Tests used:
Test in all cases: NCI anticancer screen, dose series, 48 h
T-47D breast = test system: T-47D breast
SK-MEL-28 melanoma = test system: SK-MEL-28 melanoma
HOP-92 NSCLC = test system: HOP-92 NSCLC
SN12C renal = test system: SN12C renal
A549 NSCLC = test system: A549 NSCLC
KM12 colon = test system: KM12 colon
ACHN renal = test system: ACHN renal
NCI-H226 lung = test system: NCI-H226 lung
IGROV1 ovarian = test system: IGROV1 ovarian
NCI-H460 lung = test system: NCI-H460 lung
SNB-19 CNS = test system: SNB-19 CNS
SF-268 CNS = test system: SF-268 CNS
A498 renal = test system: A498 renal
HCT-15 colon = test system: HCT-15 colon
MCF7 breast = test system: MCF7 breast
MDA-MB-435 = test system: MDA-MB-435
UACC-62 melanoma = test system: UACC-62 melanoma
CAKI-1 renal = test system: CAKI-1 renal
OVCAR-3 ovarian = test system: OVCAR-3 ovarian
NCI-H522 lung = test system: NCI-H522 lung
SW-620 colon = test system: SW-620 colon
RPMI-8226 leukemia = test system: RPMI-8226 leukemia
COLO 205 colon = test system: COLO 205 colon
HT29 colon = test system: HT29 colon
UO-31 renal = test system: UO-31 renal
NCI/ADR-RES ovarian = test system: NCI/ADR-RES ovarian
RXF 393 renal = test system: RXF 393 renal
DU-145 prostate = test system: DU-145 prostate
TK-10 renal = test system: TK-10 renal
K-562 leukemia = test system: K-562 leukemia
HCT-116 colon = test system: HCT-116 colon
HS 578T breast = test system: HS 578T breast
SF-295 CNS = test system: SF-295 CNS
CCRF-CEM leukemia = test system: CCRF-CEM leukemia
SK-MEL-5 melanoma = test system: SK-MEL-5 melanoma
SR leukemia = test system: SR leukemia
SK-MEL-2 melanoma = test system: SK-MEL-2 melanoma
U251 CNS = test system: U251 CNS
MALME-3M melanoma = test system: MALME-3M melanoma
PC-3 prostate = test system: PC-3 prostate
MOLT-4 leukemia = test system: MOLT-4 leukemia
OVCAR-8 ovarian = test system: OVCAR-8 ovarian
OVCAR-4 ovarian = test system: OVCAR-4 ovarian
SNB-75 CNS = test system: SNB-75 CNS
OVCAR-5 ovarian = test system: OVCAR-5 ovarian
EKVX NSCLC = test system: EKVX NSCLC
MDA-MB-231 breast = test system: MDA-MB-231 breast
LOX IMVI melanoma = test system: LOX IMVI melanoma
SF-539 CNS = test system: SF-539 CNS
M14 melanoma = test system: M14 melanoma
786-0 renal = test system: 786-0 renal
HCC-2998 colon = test system: HCC-2998 colon
UACC-257 melanoma = test system: UACC-257 melanoma
HL-60(TB) leukemia = test system: HL-60(TB) leukemia
BT-549 breast = test system: BT-549 breast
SK-OV-3 ovarian = test system: SK-OV-3 ovarian

In the case of `C/C(=N\NC(=O)CSc1nc2sc3c(c2c(=O)n1-c1ccccc1)CCC(C)C3)c1ccc(Cl)cc1` (configuration not stated), the GI50 (T-47D breast) is reported as 3.55 µM, the TGI (T-47D breast) is reported as 68 µM and the GI50 (SK-MEL-28 melanoma) is reported as 7.76 µM. It also gave a TGI (SK-MEL-28 melanoma) greater than 100 µM, a GI50 (HOP-92 NSCLC) of 1.33 µM and a TGI (HOP-92 NSCLC) of 9.88 µM. It also gave a GI50 (SN12C renal) of 3.4 µM, a TGI (SN12C renal) greater than 100 µM and a GI50 (A549 NSCLC) of 2.57 µM. For the same compound, the TGI (A549 NSCLC) was greater than 100 µM, the GI50 (KM12 colon) was 2.66 µM and the TGI (KM12 colon) was greater than 100 µM. For the same compound, the GI50 (ACHN renal) was 1.7 µM, the TGI (ACHN renal) was greater than 100 µM and the GI50 (NCI-H226 lung) was 13 µM. For the same compound, the TGI (NCI-H226 lung) was 52.7 µM, the GI50 (IGROV1 ovarian) was 2.82 µM and the TGI (IGROV1 ovarian) was greater than 100 µM. For the same compound, the GI50 (NCI-H460 lung) was 1.16 µM, the TGI (NCI-H460 lung) was greater than 100 µM and the GI50 (SNB-19 CNS) was 4.89 µM. For the same compound, the TGI (SNB-19 CNS) was greater than 100 µM, the GI50 (SF-268 CNS) was 3.73 µM and the TGI (SF-268 CNS) was greater than 100 µM. For the same compound, the GI50 (A498 renal) was greater than 100 µM, the TGI (A498 renal) was greater than 100 µM and the GI50 (HCT-15 colon) was 0.387 µM. It also gave a TGI (HCT-15 colon) of 25.7 µM, a GI50 (MCF7 breast) of 0.439 µM and a TGI (MCF7 breast) greater than 100 µM. The GI50 (MDA-MB-435) was 3.86 µM, the TGI (MDA-MB-435) was 66.1 µM and the GI50 (UACC-62 melanoma) was 3.57 µM. For the same compound, the TGI (UACC-62 melanoma) was greater than 100 µM, the GI50 (CAKI-1 renal) was 2.04 µM and the TGI (CAKI-1 renal) was greater than 100 µM. It also gave a GI50 (OVCAR-3 ovarian) of 3.33 µM, a TGI (OVCAR-3 ovarian) greater than 100 µM and a GI50 (NCI-H522 lung) of 3.39 µM. It also gave a TGI (NCI-H522 lung) of 39.1 µM, a GI50 (SW-620 colon) of 3.26 µM and a TGI (SW-620 colon) greater than 100 µM. For the same compound, the GI50 (RPMI-8226 leukemia) was 2.83 µM, the TGI (RPMI-8226 leukemia) was greater than 100 µM and the GI50 (COLO 205 colon) was 2.94 µM. The TGI (COLO 205 colon) was 17.5 µM, the GI50 (HT29 colon) was 3.13 µM and the TGI (HT29 colon) was 13.3 µM. The GI50 (UO-31 renal) was 2.11 µM, the TGI (UO-31 renal) was 15.8 µM and the GI50 (NCI/ADR-RES ovarian) was 2.63 µM. The TGI (NCI/ADR-RES ovarian) was 12.6 µM, the GI50 (RXF 393 renal) was 1.53 µM and the TGI (RXF 393 renal) was 8.71 µM. The GI50 (DU-145 prostate) was 3.63 µM, the TGI (DU-145 prostate) was greater than 100 µM and the GI50 (TK-10 renal) was 4.64 µM. It also gave a TGI (TK-10 renal) greater than 100 µM, a GI50 (K-562 leukemia) of 0.592 µM and a TGI (K-562 leukemia) greater than 100 µM. The GI50 (HCT-116 colon) was 0.578 µM, the TGI (HCT-116 colon) was greater than 100 µM and the GI50 (HS 578T breast) was 8.85 µM. For the same compound, the TGI (HS 578T breast) was greater than 100 µM, the GI50 (SF-295 CNS) was 4.18 µM and the TGI (SF-295 CNS) was greater than 100 µM. It also gave a GI50 (CCRF-CEM leukemia) of 0.742 µM, a TGI (CCRF-CEM leukemia) greater than 100 µM and a GI50 (SK-MEL-5 melanoma) of 4.8 µM. It also gave a TGI (SK-MEL-5 melanoma) of 19.5 µM, a GI50 (SR leukemia) of 0.735 µM and a TGI (SR leukemia) greater than 100 µM. It also gave a GI50 (SK-MEL-2 melanoma) of 2.31 µM, a TGI (SK-MEL-2 melanoma) of 14.7 µM and a GI50 (U251 CNS) of 1.98 µM. The TGI (U251 CNS) was greater than 100 µM, the GI50 (MALME-3M melanoma) was 11.8 µM and the TGI (MALME-3M melanoma) was greater than 100 µM. The GI50 (PC-3 prostate) was 3.26 µM, the TGI (PC-3 prostate) was greater than 100 µM and the GI50 (MOLT-4 leukemia) was 0.575 µM. For the same compound, the TGI (MOLT-4 leukemia) was greater than 100 µM, the GI50 (OVCAR-8 ovarian) was 3.31 µM and the TGI (OVCAR-8 ovarian) was 84.7 µM. For the same compound, the GI50 (OVCAR-4 ovarian) was 2.2 µM, the TGI (OVCAR-4 ovarian) was greater than 100 µM and the GI50 (SNB-75 CNS) was 2.55 µM. The TGI (SNB-75 CNS) was 13.7 µM, the GI50 (OVCAR-5 ovarian) was 3.52 µM and the TGI (OVCAR-5 ovarian) was greater than 100 µM. It also gave a GI50 (EKVX NSCLC) of 5.08 µM, a TGI (EKVX NSCLC) greater than 100 µM and a GI50 (MDA-MB-231 breast) of 4.67 µM. It also gave a TGI (MDA-MB-231 breast) greater than 100 µM, a GI50 (LOX IMVI melanoma) of 0.348 µM and a TGI (LOX IMVI melanoma) of 15.7 µM. The GI50 (SF-539 CNS) was 0.866 µM, the TGI (SF-539 CNS) was 4.02 µM and the GI50 (M14 melanoma) was 2.34 µM. The TGI (M14 melanoma) was 14.1 µM, the GI50 (786-0 renal) was 0.366 µM and the TGI (786-0 renal) was 38.1 µM. The GI50 (HCC-2998 colon) was 2.76 µM, the TGI (HCC-2998 colon) was greater than 100 µM and the GI50 (UACC-257 melanoma) was 16.1 µM. It also gave a TGI (UACC-257 melanoma) of 95.1 µM, a GI50 (HL-60(TB) leukemia) of 1.51 µM and a TGI (HL-60(TB) leukemia) greater than 100 µM. It also gave a GI50 (BT-549 breast) of 3.6 µM, a TGI (BT-549 breast) of 26.5 µM and a GI50 (SK-OV-3 ovarian) of 3.68 µM. It also gave a TGI (SK-OV-3 ovarian) of 36.5 µM.
